This is an account of results in patent publication US20240116985A1, “STAPLED PEPTIDES AND METHODS THEREOF” (priority 2020, published 2024).

The data set can be described thus: CHI Log D procedure. The settings on record: for chromatographic logD: pH 7.4, CHI Log D; for CHI Log D: pH 7.4. The format is physicochemical.

As a reminder, the chromatographic logD is lipophilicity estimated from chromatographic retention.

Molecules are shown by their SMILES.

As for `CC(=O)N[C@@H](Cc1ccccc1)C(=O)N[C@@H](CC(=O)O)C(=O)N[C@@H](C)C(=O)N[C@]1(C)CCCCCCC=CCOC(=O)N2CC[C@@](C(=O)N[C@@H](Cc3ccccc3)C(=O)N[C@@H](Cc3c[nH]c4ccccc34)C(=O)N[C@@H](CCC(N)=O)C(N)=O)(C2)NC(=O)[C@H](C(C)C)NC(=O)[C@H](Cc2ccccc2)NC(=O)[C@H](C)NC(=O)[C@H](C)NC(=O)[C@H](Cc2ccc(C(=O)O)cc2)NC(=O)[C@H](CC(=O)O)NC1=O` (single isomer, unassigned) [I-7, Ac-Phe-Asp-Ala-R8-Asp-4COOHF-Ala-Ala-Phe-Val-PyrS-Phe-Trp-Gln-NH2], the chromatographic logD came out at 1.32.

Regarding `CC(=O)N[C@@H](Cc1ccccc1)C(=O)N[C@@H](CC(=O)O)C(=O)N[C@@H](C)C(=O)N[C@]1(C)CCCCCCC=CCOC(=O)N2CC[C@@](C(=O)N[C@@H](Cc3ccccc3)C(=O)N[C@@H](Cc3c[nH]c4ccccc34)C(=O)N[C@@H](CCC(N)=O)C(N)=O)(C2)NC(=O)[C@H](C(C)C)NC(=O)[C@H](Cc2ccccc2)NC(=O)[C@H](C)NC(=O)[C@H](C)NC(=O)[C@H](Cc2ccc(C(=O)O)cc2)NC(=O)[C@H](CC(=O)O)NC1=O` (single isomer, unassigned) [I-8, Ac-Phe-Asp-Ala-R8-Asp-4COOHF-Ala-Ala-Phe-Val-PyrS-Phe-Trp-Gln-NH2], the “CHI Log D” value is 1.349.

`CC(=O)N[C@@H](Cc1ccccc1)C(=O)N[C@@H](CC(=O)O)C(=O)N[C@@H](C)C(=O)N[C@]1(C)CCCCCCC=CCOC(=O)N2CC[C@@](C(=O)N[C@@H](Cc3ccccc3)C(=O)N[C@@H](Cc3c[nH]c4ccccc34)C(=O)N[C@@H](CCC(N)=O)C(N)=O)(C2)NC(=O)[C@H](C(C)C)NC(=O)[C@H](Cc2ccccc2)NC(=O)[C@H](C)NC(=O)[C@H](C)NC(=O)[C@H](Cc2cccnc2)NC(=O)[C@H](CC(=O)O)NC1=O` (single isomer, unassigned) [I-9, Ac-Phe-Asp-Ala-R8-Asp-3PyrA-Ala-Ala-Phe-Val-PyrS-Phe-Trp-Gln-NH2] yielded a chromatographic logD of 1.65.

For the compound `CC(=O)N[C@@H](Cc1ccccc1)C(=O)N[C@@H](CC(=O)O)C(=O)N[C@@H](C)C(=O)N[C@]1(C)CCCCCCC=CCOC(=O)N2CC[C@@](C(=O)N[C@@H](Cc3ccccc3)C(=O)N[C@@H](Cc3c[nH]c4ccccc34)C(=O)N[C@@H](CCC(N)=O)C(N)=O)(C2)NC(=O)[C@H](C(C)C)NC(=O)[C@H](Cc2ccccc2)NC(=O)[C@H](C)NC(=O)[C@H](C)NC(=O)[C@H](Cc2cccnc2)NC(=O)[C@H](CC(=O)O)NC1=O` (single isomer, unassigned) [I-10, Ac-Phe-Asp-Ala-R8-Asp-3PyrA-Ala-Ala-Phe-Val-PyrS-Phe-Trp-Gln-NH2], the “CHI Log D” value is recorded as 1.661.

`CC(=O)N[C@@H](Cc1ccccc1)C(=O)N[C@@H](CC(=O)O)C(=O)N[C@@H](C)C(=O)N[C@]1(C)CCCCCCC=CCOC(=O)N2CC[C@@](C(=O)N[C@@H](Cc3ccccc3)C(=O)N[C@@H](Cc3c[nH]c4ccccc34)C(=O)N[C@@H](CCC(N)=O)C(N)=O)(C2)NC(=O)[C@H](C(C)C)NC(=O)[C@H](Cc2ccccc2)NC(=O)[C@H](C)NC(=O)[C@H](C)NC(=O)[C@H](Cc2ccc(-c3ccccc3)cc2)NC(=O)[C@H](CC(=O)O)NC1=O` (single isomer, unassigned) [I-11, Ac-Phe-Asp-Ala-R8-Asp-Bip-Ala-Ala-Phe-Val-PyrS-Phe-Trp-Gln-NH2] registered a chromatographic logD of 2.27.

Turning to `CC(=O)N[C@@H](Cc1ccccc1)C(=O)N[C@@H](CC(=O)O)C(=O)N[C@@H](C)C(=O)N[C@]1(C)CCCCCCC=CCOC(=O)N2CC[C@@](C(=O)N[C@@H](Cc3ccccc3)C(=O)N[C@@H](Cc3c[nH]c4ccccc34)C(=O)N[C@@H](CCC(N)=O)C(N)=O)(C2)NC(=O)[C@H](C(C)C)NC(=O)[C@H](Cc2ccccc2)NC(=O)[C@H](C)NC(=O)[C@H](C)NC(=O)[C@H](Cc2ccc(-c3ccccc3)cc2)NC(=O)[C@H](CC(=O)O)NC1=O` (single isomer, unassigned) [I-12, Ac-Phe-Asp-Ala-R8-Asp-Bip-Ala-Ala-Phe-Val-PyrS-Phe-Trp-Gln-NH2], the “CHI Log D” value worked out at 2.247.
